# Tested on: patients with indolent forms of mastocytosis with handicap, D816V absent in at least one infiltrated organ
# Assay: Example 1 phase 2a study, response assessment
# Format: in vivo, human
# Design: Hamilton rating Δ Mean ± SD / QLQ-C30 Symptom Δ Mean ± SD / QLQ-C30 Global Health Δ Mean ± SD / AFIRMM Δ Mean ± SD / Hamilton rating ΔMean ± SD / QLQC30 Symptom ΔMean ± SD / QLQC30 Global Health ΔMean ± SD / AFIRMM ΔMean ± SD: scale not given here
# Conditions: for AFIRMM ΔMean ± SD / Flushes per day ΔMean ± SD / Hamilton rating ΔMean ± SD / Micturitions per day ΔMean ± SD / OPA Score Change: (2, 3, 4) to (0, 1) / OPA Score No change / Pruritus ΔMean ± SD / QLQC30 Functional ΔMean ± SD / QLQC30 Global Health ΔMean ± SD / QLQC30 Symptom ΔMean ± SD / Stools per day ΔMean ± SD: extension-phase cohort
# Procedure: Eligible patients were aged >18 years, had previously documented indolent systemic, smoldering systemic or cutaneous mastocytosis as per the WHO classification with associated disability as the result of mast cell released mediators and had not responded to usual symptomatic treatments for more the 6 months. […] A single occurrence of this criterion was deemed sufficient for inclusion and so no systematic examination of multiple organs was carried out specifically for this study.
# Patients were classified as having a handicap if after appropriate symptomatic treatments they fulfilled at least one of the following a priori criteria: number of flushes/day ≥1; pruritus score ≥6; number of stools ≥4/day; micturition frequency ≥8/day; Hamilton rating for depression ≥10; or EORTC quality-of-life questionnaire (QLQ-C30) symptom score, functional score, and global health status of >0. Patients were excluded if they experienced inadequate organ function defined via blood test levels, or an Eastern Cooperative Oncology Group performance status >2. Other exclusion criteria included: life expectancy <6 months, severe or uncontrolled medical disease, and patients who were pregnant or nursing.
# In accordance to the AFIRMM study (Hermine O, et al., 2008, PLoS ONE. 3:e2266), evaluation of treatment response was based upon the change of clinical symptoms associated with a patient's handicaps at week 12 (W12) relative to baseline. Primary endpoints were daily frequency of flushes; pruritus score; and Hamilton rating for depression, as well as, daily stool and micturition frequencies; QLQ-C30 global health status, functional, and symptom scores. […] For those patients entering the extension phase, assessments were performed every 4 weeks for the first 3 months of extension, and every 12 weeks thereafter. Secondary endpoints included the W12 assessment of AFIRMM score (a validated questionnaire assessing the self-perceived severity of mastocytosis) (Hermine O, et al., 2008, PLoS ONE. 3:e2266); overall patient assessment (OPA) score; tryptase levels; and change in organ mast cell infiltration. Determination of D816V mutation and serum tryptase levels was conducted following procedures described previously (Hermine O, et al., 2008, PLoS ONE. 3:e2266). Overall clinical response analysis at W12 defined a responder as having an improvement of ≥50% in baseline handicap of a key response endpoint (Hamilton rating, flushes, or pruritus) without deterioration or emergence of handicap. Any patient with deterioration of ≥50% in any handicap, and/or with emergence of a new handicap with an increase of ≥50% from baseline was considered as worsening. Any patient who discontinued the study before W12 was considered a non responder. Discrimination between dose regimens was investigated by analyses of the ‘time to first response’, according to the initial dosage, and ‘dose at time of first response’ in key response endpoints.
# Response analysis was performed on subgroups of the ITT population according to a patient's handicap at baseline and for whom response was evaluated at W12; referred to hereafter as the handicap-related population. No data imputation was implemented. The per protocol (PP) population was defined as a subset of a given handicap-related population, which in addition had presented no major protocol deviations. Summary response data are presented using descriptive statistics with mean improvement compared to baseline in each handicap cohort, regardless of disease classification. The appropriate Wilcoxon or Fisher tests were used for group comparison of baseline disease, demographic characteristics between dose level groups and response relative to baseline. Subpopulation analysis was also conducted according to initial c-Kit status.
smiles,measurement,setting,value
"Cc1ccc(NC(=O)c2ccc(CN3CCN(C)CC3)cc2)cc1Nc1nc(-c2cccnc2)cs1 [masitinib, 4-(4-methylpiperazin-1-ylmethyl)-N-[4-methyl-3-(4-pyridin-3ylthiazol-2-ylamino)phenyl]benzamide]",first response events: AFIRMM score,at 6.0 mg/kg/day,5
same,first response events: Cumulative Frequency,at 6.0 mg/kg/day,96%
same,first response events: Flush,at 6.0 mg/kg/day,4
same,first response events: Hamilton,at 6.0 mg/kg/day,4
same,first response events: Micturition,at 6.0 mg/kg/day,1
same,first response events: OPA score,at 6.0 mg/kg/day,4
same,first response events: Pruritus,at 6.0 mg/kg/day,4
same,first response events: QLQ30 Functional,at 6.0 mg/kg/day,1
same,first response events: QLQ30 Global,at 6.0 mg/kg/day,2
same,first response events: QLQ30 Symptom,at 6.0 mg/kg/day,1
same,first response events: Stool,at 6.0 mg/kg/day,2
same,first response events: Total events,at 6.0 mg/kg/day,28
same,first response events: Cumulative Frequency,at 7.5 mg/kg/day,100%
same,first response events: Flush,at 7.5 mg/kg/day,1
same,first response events: OPA score,at 7.5 mg/kg/day,1
same,first response events: QLQ30 Symptom,at 7.5 mg/kg/day,1
same,first response events: Total events,at 7.5 mg/kg/day,3
same,AFIRMM ΔMean ± SD,W4,−44.5 ± 51.6
same,Flushes per day ΔMean ± SD,W4,−1.1 ± 1.8
same,Hamilton rating ΔMean ± SD,W4,−5.9 ± 3.2
same,Micturitions per day ΔMean ± SD,W4,−2.5 ± 3.3
same,"OPA Score Change: (2, 3, 4) to (0, 1)",W4,3 (18%)
same,OPA Score No change,W4,14 (82%)
same,Pruritus ΔMean ± SD,W4,−2.8 ± 3.7
same,QLQC30 Functional ΔMean ± SD,W4,8.7 ± 18.2
same,QLQC30 Global Health ΔMean ± SD,W4,8.3 ± 25.5
same,QLQC30 Symptom ΔMean ± SD,W4,−4.1 ± 7.8
same,Stools per day ΔMean ± SD,W4,−4.3 ± 2.6
same,AFIRMM ΔMean ± SD,W12,−61.9 ± 45.9
same,Flushes per day ΔMean ± SD,W12,−1.6 ± 1.5
same,Hamilton rating ΔMean ± SD,W12,−4.6 ± 4.9
same,Micturitions per day ΔMean ± SD,W12,−5.4 ± 2.6
same,"OPA Score Change: (2, 3, 4) to (0, 1)",W12,3 (20%)
same,OPA Score No change,W12,16 (80%)
same,Pruritus ΔMean ± SD,W12,−3.3 ± 3.0
same,QLQC30 Functional ΔMean ± SD,W12,11.6 ± 16.4
same,QLQC30 Global Health ΔMean ± SD,W12,16.1 ± 26.4
same,QLQC30 Symptom ΔMean ± SD,W12,−7.0 ± 15.2
same,Stools per day ΔMean ± SD,W12,−4.2 ± 3.0
same,AFIRMM ΔMean ± SD,W24,−66.0 ± 29.9
same,Flushes per day ΔMean ± SD,W24,−1.9 ± 3.1
same,Hamilton rating ΔMean ± SD,W24,−2.8 ± 9.2
same,Micturitions per day ΔMean ± SD,W24,−4.3 ± 5.9
same,"OPA Score Change: (2, 3, 4) to (0, 1)",W24,0 (0%)
same,OPA Score No change,W24,3 (100%)
same,Pruritus ΔMean ± SD,W24,−5.1 ± 4.7
same,QLQC30 Functional ΔMean ± SD,W24,15.3 ± 10.6
same,QLQC30 Global Health ΔMean ± SD,W24,18.8 ± 27.5
same,QLQC30 Symptom ΔMean ± SD,W24,−19.9 ± 8.2
same,Stools per day ΔMean ± SD,W24,−2.5 ± 2.1
same,AFIRMM ΔMean ± SD,W36,−62.4 ± 31.8
same,Flushes per day ΔMean ± SD,W36,−2.1 ± 3.5
same,Hamilton rating ΔMean ± SD,W36,−10.3 ± 5.1
same,Micturitions per day ΔMean ± SD,W36,−6.5 ± 6.4
same,"OPA Score Change: (2, 3, 4) to (0, 1)",W36,1 (20%)
same,OPA Score No change,W36,4 (80%)
same,Pruritus ΔMean ± SD,W36,−6.9 ± 3.5
same,QLQC30 Functional ΔMean ± SD,W36,5.8 ± 16.7
same,QLQC30 Global Health ΔMean ± SD,W36,21.7 ± 26.1
same,QLQC30 Symptom ΔMean ± SD,W36,−14.4 ± 6.5
same,Stools per day ΔMean ± SD,W36,−0.7 ± 3.2
same,AFIRMM ΔMean ± SD,W48,−64.3 ± 48.5
same,Flushes per day ΔMean ± SD,W48,−2.8 ± 2.9
same,Hamilton rating ΔMean ± SD,W48,−11.5 ± 6.4
same,Micturitions per day ΔMean ± SD,W48,−7.0 ± 2.8
same,"OPA Score Change: (2, 3, 4) to (0, 1)",W48,2 (33%)
same,OPA Score No change,W48,4 (67%)
same,Pruritus ΔMean ± SD,W48,−5.2 ± 4.4
same,QLQC30 Functional ΔMean ± SD,W48,0.7 ± 16.7
same,QLQC30 Global Health ΔMean ± SD,W48,12.5 ± 14.7
same,QLQC30 Symptom ΔMean ± SD,W48,−10.3 ± 6.4
same,Stools per day ΔMean ± SD,W48,−2.0 ± 0.0
same,AFIRMM ΔMean ± SD,W60,−61.1 ± 32.9
same,Flushes per day ΔMean ± SD,W60,−2.3 ± 2.9
same,Hamilton rating ΔMean ± SD,W60,−8.3 ± 7.5
same,Micturitions per day ΔMean ± SD,W60,−6.0 ± 4.2
same,"OPA Score Change: (2, 3, 4) to (0, 1)",W60,4 (44%)
same,OPA Score No change,W60,5 (56%)
same,Pruritus ΔMean ± SD,W60,−4.6 ± 4.3
same,QLQC30 Functional ΔMean ± SD,W60,11.6 ± 11.2
same,QLQC30 Global Health ΔMean ± SD,W60,23.1 ± 25.3
same,QLQC30 Symptom ΔMean ± SD,W60,−12.9 ± 8.3
same,Stools per day ΔMean ± SD,W60,−4.7 ± 2.9

# Reference: patent US10045978B2 (AB SCIENCE, priority 2010, dated 2018)
